Assay results from ChEMBL document CHEMBL1201862, “PubChem BioAssay data set” (2004).
Active and inactive are the calls of the source.

Key:
[1] = biological target: T1, High affinity choline transporter 1 (Homo sapiens, UniProt Q9GZV3); assay: human choline transporter blockers, potency – cell-based, 5-point CRC, membrane potential dye, dose response (AID 504840); type: functional
T1 sequence (Q9GZV3 whole entry): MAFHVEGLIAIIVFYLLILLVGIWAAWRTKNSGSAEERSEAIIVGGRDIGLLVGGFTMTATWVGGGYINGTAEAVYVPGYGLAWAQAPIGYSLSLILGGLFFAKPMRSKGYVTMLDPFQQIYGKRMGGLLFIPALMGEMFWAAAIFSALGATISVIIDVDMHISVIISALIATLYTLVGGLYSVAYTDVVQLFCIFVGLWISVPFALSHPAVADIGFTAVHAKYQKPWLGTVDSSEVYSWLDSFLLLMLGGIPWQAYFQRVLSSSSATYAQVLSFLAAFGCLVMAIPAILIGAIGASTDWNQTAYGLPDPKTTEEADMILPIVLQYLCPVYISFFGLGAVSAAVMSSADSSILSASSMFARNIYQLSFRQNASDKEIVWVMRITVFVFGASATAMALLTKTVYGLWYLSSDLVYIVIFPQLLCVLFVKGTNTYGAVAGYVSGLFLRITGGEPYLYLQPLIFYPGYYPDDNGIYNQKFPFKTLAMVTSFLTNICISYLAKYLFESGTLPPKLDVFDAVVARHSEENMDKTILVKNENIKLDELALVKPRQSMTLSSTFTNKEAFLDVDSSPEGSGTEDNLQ

[2] = blockers of HIV-1 envelope-mediated cell-cell fusion – cherry-pick, dose response (AID 652057); type: functional, cell-based
[3] = blockers of HIV-1 ZM109 envelope-driven cell-cell fusion – HeLa effector, CEM target cells, luciferase, cherry-pick, dose response (AID 652058); type: functional, cell-based;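 also: luciferase signal from HIV-1 Env mediated cell-cell fusion of effector and target cells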
[4] = HIV-1 AD8 envelope cell-cell fusion blockers – cherry-pick, dose response (AID 652062); type: functional, cell-based;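 also: luciferase signal from cell-cell fusion driven by HIV-1 clade B AD8 Env; potency is for inhibitors of fusion seen as a drop in luminescence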
[5] = intracellular Trypanosoma cruzi inhibitors in host cells – cell-based, plate reader, cherry-pick samples, set 3, dose response (AID 651818); type: functional;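 also: compounds incubated with infected cells for about four days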
[6] = biological target: Induced myeloid leukemia cell differentiation protein Mcl-1 (Homo sapiens, UniProt Q07820); type: functional
[7] = biological target: T2, Small ubiquitin-related modifier 1 (Homo sapiens, UniProt P63165); assay: SUMO1 protein interaction blockers, potency – biochemical, fluorescence polarization, uHTS hits, dose response (AID 624382); type: functional; details: read-out: IC50_Mean
[8] = biological target: T2, Small ubiquitin-related modifier 1; assay: SUMO1 protein-protein binding blockers, potency – biochemical, FRET, dose response (AID 624383); type: functional; details: read-out: IC50_Mean
Leucine aminopeptidase = biological target: T3, Leucine aminopeptidase (Plasmodium falciparum 3D7, UniProt Q8IL11); assay: P. falciparum M17LAP inhibitors, primary screen, biochemical, fluorogenic H-Leu-NHMec substrate, 1536-well (AID 1619); type: functional
T3 sequence (Q8IL11 whole entry): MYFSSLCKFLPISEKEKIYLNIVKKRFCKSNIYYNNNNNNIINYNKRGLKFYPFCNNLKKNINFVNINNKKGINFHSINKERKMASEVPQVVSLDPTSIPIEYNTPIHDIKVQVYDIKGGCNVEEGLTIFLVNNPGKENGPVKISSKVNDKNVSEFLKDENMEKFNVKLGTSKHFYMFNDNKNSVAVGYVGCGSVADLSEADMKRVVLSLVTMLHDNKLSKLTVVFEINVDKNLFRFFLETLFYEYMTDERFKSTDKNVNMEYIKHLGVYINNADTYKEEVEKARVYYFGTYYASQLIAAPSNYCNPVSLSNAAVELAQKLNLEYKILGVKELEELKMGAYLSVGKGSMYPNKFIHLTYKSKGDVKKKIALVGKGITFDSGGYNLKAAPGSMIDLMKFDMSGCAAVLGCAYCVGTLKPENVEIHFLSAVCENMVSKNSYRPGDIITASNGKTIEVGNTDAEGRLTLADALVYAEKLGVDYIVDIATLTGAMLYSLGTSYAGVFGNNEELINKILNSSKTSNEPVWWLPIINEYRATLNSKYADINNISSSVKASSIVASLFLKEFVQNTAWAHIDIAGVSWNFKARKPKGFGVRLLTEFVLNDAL

[9] = microbe, parasite or virus in culture; type: functional; details: Mycobacterium tuberculosis
Beta-galactosidase = Beta-galactosidase (Escherichia coli, UniProt Q8VNN2); assay: Dose response counterscreen for EBI2 assay utilizing the enzyme, b-galactosidase.; type: functional
Nonstructural protein 1 = Nonstructural protein 1 (Influenza A virus, UniProt Q194T2); type: functional, Influenza A virus (A/California/07/2009(H1N1))
[10] = viability loss in HeLa cells – cytotoxicity control for MgcRacGAP inhibitor project, dose response (AID 624300); type: functional
[11] = biological target: T4, Rac GTPase-activating protein 1 (Homo sapiens, UniProt Q9H0H5); assay: blockers of MgcRacGAP-driven Rac1 GTP hydrolysis – biochemical, ADP Hunter fluorescence, primary and confirmatory, confirmation (AID 624330); type: functional
T4 sequence (Q9H0H5 whole entry): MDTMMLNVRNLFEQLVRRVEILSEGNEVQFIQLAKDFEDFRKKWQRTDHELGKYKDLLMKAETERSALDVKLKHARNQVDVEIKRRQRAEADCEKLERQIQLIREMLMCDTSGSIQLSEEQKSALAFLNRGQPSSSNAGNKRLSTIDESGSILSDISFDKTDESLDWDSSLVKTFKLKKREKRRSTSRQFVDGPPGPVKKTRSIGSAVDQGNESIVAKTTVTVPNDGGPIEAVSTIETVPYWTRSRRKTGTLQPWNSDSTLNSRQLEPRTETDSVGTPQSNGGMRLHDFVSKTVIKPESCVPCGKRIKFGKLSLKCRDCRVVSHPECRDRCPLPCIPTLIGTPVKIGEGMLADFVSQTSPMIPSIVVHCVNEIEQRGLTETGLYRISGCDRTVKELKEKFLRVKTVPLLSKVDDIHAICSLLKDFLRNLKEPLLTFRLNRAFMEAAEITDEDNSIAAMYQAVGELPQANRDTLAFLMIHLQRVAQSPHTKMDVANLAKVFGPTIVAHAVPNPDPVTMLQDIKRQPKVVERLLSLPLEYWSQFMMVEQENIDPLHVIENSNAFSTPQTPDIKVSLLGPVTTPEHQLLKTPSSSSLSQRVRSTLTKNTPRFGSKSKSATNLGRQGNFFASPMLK

[12] = biological target: T5, DNA repair protein RAD52 homolog (Homo sapiens, UniProt P43351); type: functional, biochemical
T5 sequence (P43351 whole entry): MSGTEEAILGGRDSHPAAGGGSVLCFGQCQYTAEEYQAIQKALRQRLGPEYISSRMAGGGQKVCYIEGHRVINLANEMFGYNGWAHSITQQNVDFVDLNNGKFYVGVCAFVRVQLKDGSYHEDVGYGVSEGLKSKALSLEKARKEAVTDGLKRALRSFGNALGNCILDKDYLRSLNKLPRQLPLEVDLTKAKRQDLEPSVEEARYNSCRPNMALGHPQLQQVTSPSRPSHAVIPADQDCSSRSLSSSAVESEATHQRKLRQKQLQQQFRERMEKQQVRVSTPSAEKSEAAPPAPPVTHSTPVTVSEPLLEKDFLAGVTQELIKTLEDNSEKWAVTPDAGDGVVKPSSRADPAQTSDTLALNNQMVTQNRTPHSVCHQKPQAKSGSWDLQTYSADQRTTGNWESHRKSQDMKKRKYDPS

[13] = biological target: T6, Polyadenylate-binding protein 1 (Homo sapiens, UniProt P11940); assay: MLLE binding blockers, Cy5 peptide tracer – biochemical, fluorescence polarization, Cy5-PAM2 peptide, secondary, miRNA deadenylation inhibitor project, dose response (AID 602260); type: functional; details: read-out: IC50_Mean
[14] = biological target: T6, Polyadenylate-binding protein 1; assay: MLLE domain peptide-binding blockers, IC50 – biochemical, fluorescence polarization, FITC-PAM2 peptide, dose response (AID 602259); type: functional; details: read-out: IC50_Mean

T2 sequence (P63165 whole entry): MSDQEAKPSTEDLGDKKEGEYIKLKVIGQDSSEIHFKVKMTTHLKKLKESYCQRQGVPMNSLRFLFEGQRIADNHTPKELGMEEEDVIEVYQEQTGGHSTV
T6 sequence (P11940 whole entry, the tested form may be a part): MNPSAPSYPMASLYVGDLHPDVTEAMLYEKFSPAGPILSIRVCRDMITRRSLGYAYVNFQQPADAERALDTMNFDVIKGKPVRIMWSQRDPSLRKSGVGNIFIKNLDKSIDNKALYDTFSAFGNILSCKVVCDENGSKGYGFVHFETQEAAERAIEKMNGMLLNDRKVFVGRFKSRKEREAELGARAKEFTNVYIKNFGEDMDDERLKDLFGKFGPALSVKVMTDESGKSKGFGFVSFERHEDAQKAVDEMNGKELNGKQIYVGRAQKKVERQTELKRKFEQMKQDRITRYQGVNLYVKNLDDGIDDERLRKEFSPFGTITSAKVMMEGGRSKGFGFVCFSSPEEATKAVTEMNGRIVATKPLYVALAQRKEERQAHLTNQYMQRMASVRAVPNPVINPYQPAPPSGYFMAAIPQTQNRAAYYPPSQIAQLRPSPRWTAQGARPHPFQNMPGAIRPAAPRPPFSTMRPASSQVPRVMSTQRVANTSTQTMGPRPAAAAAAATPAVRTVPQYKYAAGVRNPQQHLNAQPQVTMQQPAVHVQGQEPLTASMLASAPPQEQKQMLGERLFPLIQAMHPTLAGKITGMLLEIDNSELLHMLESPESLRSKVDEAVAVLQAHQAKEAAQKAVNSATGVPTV
Chain of Beta-galactosidase (Q8VNN2 whole entry): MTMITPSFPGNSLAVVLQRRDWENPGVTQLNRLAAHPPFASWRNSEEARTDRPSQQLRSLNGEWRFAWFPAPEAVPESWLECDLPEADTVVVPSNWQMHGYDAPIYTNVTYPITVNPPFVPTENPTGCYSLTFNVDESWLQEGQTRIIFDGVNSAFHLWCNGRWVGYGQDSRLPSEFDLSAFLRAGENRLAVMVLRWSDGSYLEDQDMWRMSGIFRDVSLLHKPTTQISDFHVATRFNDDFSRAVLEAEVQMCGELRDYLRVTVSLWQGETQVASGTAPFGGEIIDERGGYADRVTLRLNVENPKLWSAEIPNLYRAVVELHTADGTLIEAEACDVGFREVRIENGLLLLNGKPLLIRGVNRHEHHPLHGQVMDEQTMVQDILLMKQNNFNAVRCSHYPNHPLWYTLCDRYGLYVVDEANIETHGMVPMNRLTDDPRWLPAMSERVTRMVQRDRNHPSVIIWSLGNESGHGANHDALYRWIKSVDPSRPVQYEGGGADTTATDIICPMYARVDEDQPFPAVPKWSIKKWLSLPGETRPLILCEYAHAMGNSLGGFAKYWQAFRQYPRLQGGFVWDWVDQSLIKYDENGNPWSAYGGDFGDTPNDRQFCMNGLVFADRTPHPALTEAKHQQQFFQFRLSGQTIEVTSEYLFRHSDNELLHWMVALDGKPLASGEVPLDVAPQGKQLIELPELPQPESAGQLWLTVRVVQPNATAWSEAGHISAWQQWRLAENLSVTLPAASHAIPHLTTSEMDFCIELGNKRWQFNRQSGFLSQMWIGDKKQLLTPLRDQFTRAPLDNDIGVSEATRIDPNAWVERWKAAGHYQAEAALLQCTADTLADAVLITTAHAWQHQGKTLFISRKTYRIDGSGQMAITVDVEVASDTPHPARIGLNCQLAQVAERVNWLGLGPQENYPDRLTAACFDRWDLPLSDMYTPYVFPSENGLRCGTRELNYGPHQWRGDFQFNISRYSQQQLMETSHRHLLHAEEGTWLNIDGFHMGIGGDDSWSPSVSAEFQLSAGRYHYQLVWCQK
Chain of Induced myeloid leukemia cell differentiation protein Mcl-1 (Q07820 whole entry): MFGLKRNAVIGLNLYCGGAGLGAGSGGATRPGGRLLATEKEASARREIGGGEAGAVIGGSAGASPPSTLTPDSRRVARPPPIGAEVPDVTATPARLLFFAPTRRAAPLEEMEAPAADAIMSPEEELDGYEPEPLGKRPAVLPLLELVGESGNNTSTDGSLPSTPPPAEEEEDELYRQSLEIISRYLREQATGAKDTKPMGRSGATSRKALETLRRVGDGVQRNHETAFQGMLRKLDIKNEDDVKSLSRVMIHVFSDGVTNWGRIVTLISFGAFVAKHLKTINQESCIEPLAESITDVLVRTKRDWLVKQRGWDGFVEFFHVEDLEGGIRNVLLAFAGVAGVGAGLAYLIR
Chain of Nonstructural protein 1 (Q194T2 whole entry): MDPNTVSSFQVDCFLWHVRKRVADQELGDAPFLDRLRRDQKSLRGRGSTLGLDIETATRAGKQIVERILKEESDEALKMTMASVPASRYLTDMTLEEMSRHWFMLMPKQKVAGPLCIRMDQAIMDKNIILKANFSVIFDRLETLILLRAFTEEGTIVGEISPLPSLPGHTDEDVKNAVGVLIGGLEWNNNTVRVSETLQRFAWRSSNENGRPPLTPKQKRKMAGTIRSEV

In the case of `C=CCN(CC=C)S(=O)(=O)c1ccc2nc(NC(=O)C(C)C)sc2c1`, the IC50 [1] is reported as 13.8 µM (active).
For `C[C@@H]1CN([C@@H](C)CO)S(=O)(=O)c2ccc(C3=CCCCC3)cc2O[C@@H]1CN(C)S(=O)(=O)c1ccc(F)cc1`, the AC50 [2] was 3.34 µM (active), the AC50 [3] was 1.35 µM (active) and the AC50 [4] was 3.53 µM (active).
In the case of `Cc1ccc(S(=O)(=O)Nc2ccc3c(c2)C(=O)N([C@H](C)CO)C[C@H](C)[C@H](CN(C)S(=O)(=O)c2ccc(Cl)cc2)O3)cc1`, the AC50 [5] is reported as 4.35 µM (active).
In the case of `O=c1c(-c2c(O)cc(O)c3c(=O)cc(-c4ccc(O)cc4)oc23)c(-c2ccc(O)cc2)oc2cc(O)cc(O)c12`, the IC50 [6] is reported as 2.73 µM (not active), the IC50 [7] is reported as > 66.6 µM (inactive) and the IC50 [8] is reported as 9.2 µM (active).
For `CCSc1nnc(NC(=O)C2CC=CCC2C(=O)O)s1` (stereo not given), the IC50 (Leucine aminopeptidase) was 19.9 µM (active).
In the case of `CC(C)(C)NC(=O)NC(=O)CN1CCC(Cc2ccccc2)CC1`, the IC50 [1] is reported as 12 µM (active).
In the case of `Cc1cc(C)c(NC(=O)CCCCCNC2CCCCC2)c(C)c1`, the IC50 [1] is reported as 12.6 µM (active).
For `O=C(/C=C/c1ccc(Cl)cc1)N1CCN(c2ccc(Cl)cc2[N+](=O)[O-])CC1`, the CC50 [9] was > 40 µM (active) and the IC50 (Beta-galactosidase) was > 80 µM (inactive).
With `NC(=O)c1ccc2c(=O)n3c(-c4cc(Cl)c(N)c(Cl)c4)csc3nc2c1` the IC50 [7] was > 66.6 µM (inactive) and the IC50 [8] was 13.4 µM (active).
In the case of `Cc1ccc(NCCN(C)C)c2c(=O)c3cc(O)ccc3sc12`, the IC50 (Nonstructural protein 1) is reported as 21.7 µM (active), the CC50 [10] is reported as 27.7 µM (active) and the IC50 [11] is reported as 24 µM (active). For the same compound, the AC50 [12] was 320 nM (active).
For `C[C@@H]1CN([C@@H](C)CO)C(=O)Cc2cc(NC(=O)Nc3ccc(C(F)(F)F)cc3)ccc2O[C@@H]1CN(C)S(=O)(=O)c1ccc(F)cc1`, the AC50 [5] was 6.4 µM (active).
For `COc1ccc(NC(=O)CSc2nc(O)c(Cc3ccccc3)c(=O)[nH]2)cc1`, the IC50 (Leucine aminopeptidase) was 10.2 µM (active), the IC50 [13] was > 66 µM (inactive) and the IC50 [14] was > 66 µM (inactive).
For `CC(=O)N1CCOc2ccc(S(=O)(=O)N3CCC(C(=O)NCc4ccc(Cl)cc4)CC3)cc21`, the IC50 (Beta-galactosidase) was > 80 µM (inactive).
With `C[C@@H]1CN([C@H](C)CO)C(=O)c2cccc(NC(=O)CCCCCC(=O)Nc3ccccc3N)c2O[C@@H]1CN(C)Cc1ccc(C(F)(F)F)cc1` the AC50 [5] was 2.34 µM (active).
